Data on 19 molecules can be found in patent US8293769B2, “CSF-1R inhibitors, compositions, and methods of use” (Novartis AG, priority 2008, dated 2012).

SMILES strings stand for the structures.

Test [1] concerns the target T1, PDGFRb (Homo sapiens, UniProt P09619).
T1 construct: The kinase domain of PDGFRβ was assayed in 50 mM Hepes; purchased Invitrogen P3082
Put plainly: PDGFRb kinase in vitro biochemical assay (alphascreen). The settings on record: tested at about 1 μM; read-out: PDGF RK BETA percent inhibition.

Test [2] deals with MNFS60 (murine AML cells). Put plainly: Cell viability assay in MCSF dependent MNFS60 cells (Cell Titer Glo). Format: cell-based. As to conditions: Mus musculus; tested at about 1 μM; MCSF 10 ng/mL, 72 hrs; read-out: CPEC50 MNFS60MCSF percent inhibition. The procedure:
Cell viability was assessed by Cell Titer Glo, Promega. MNFS60 (murine AML cells) were seeded in TC treated 96-well plates at a density of 5,000 cells per well in RPMI-1640, 10% FBS, and 1% Penicillin Streptomycin prior to addition of compound. Test compounds were serially diluted (3 fold) in DMSO to 500× the final concentration. For each concentration of test compound, 2 μl (500×) aliquots of compound or 100% DMSO (control) were diluted in 500 μl of culture medium that contained 2× final concentration of growth factor MCSF for 2× concentration and then diluted 1× on the cells. Final concentration of MCSF is 10 ng/mL. Cells were incubated for 72 hrs at 37° C., 5% CO2. After the incubation 100 μl Cell Titer Glo is added to each well to determine viable cells. The assay was performed according to the manufacturer's instruction (Promega Corporation, Madison, Wis. USA). Each experimental condition was performed in triplicate. Raw data was imported in Abase and EC50s calculated with XL-fit data analysis software: Relative light units of wells that contained cells without MCSF in the media and as a consequence didn't grow were defined as 100% inhibited.

Test [3] concerns the target T2, cKIT (Homo sapiens, UniProt P10721).
T2 construct: The kinase domain of cKIT was assayed in 50 mM Hepes; purchased Upstate 14-559
Put plainly: cKIT kinase in vitro biochemical assay (alphascreen). The settings on record: tested at about 1 μM; read-out: CKIT percent inhibition.

The target of test [4] is T3, cytoplasmic domain of the human CSF-1R (Homo sapiens, UniProt P07333).
T3 construct: Recombinant protein corresponding to the cytoplasmic domain of the human CSF-1R; purchased Invitrogen Corporation, Carlsbad, Calif; PV3249
T3 sequence (P07333 539-972 limits assumed): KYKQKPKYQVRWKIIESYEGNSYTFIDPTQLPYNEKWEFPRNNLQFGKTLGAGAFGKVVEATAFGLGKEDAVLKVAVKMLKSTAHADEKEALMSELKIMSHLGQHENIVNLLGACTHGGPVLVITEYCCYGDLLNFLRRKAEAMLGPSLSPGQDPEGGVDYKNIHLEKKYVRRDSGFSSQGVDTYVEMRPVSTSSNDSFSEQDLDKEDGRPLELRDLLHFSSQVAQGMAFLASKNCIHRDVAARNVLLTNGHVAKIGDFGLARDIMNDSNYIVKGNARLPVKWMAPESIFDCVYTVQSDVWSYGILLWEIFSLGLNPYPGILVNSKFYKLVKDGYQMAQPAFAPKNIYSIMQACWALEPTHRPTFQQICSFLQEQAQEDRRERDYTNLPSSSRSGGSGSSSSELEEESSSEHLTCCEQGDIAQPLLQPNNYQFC
The test is described as follows: In vitro kinase assay for CSF-1R (AlphaScreen). Format: biochemical. As to conditions: tested at about 1 μM; read-out: CSF1RK 1 percent inhibition. The method, boiled down: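 Recombinant CSF-1R cytoplasmic domain (4 nM) phosphorylated biotinylated peptide (0.05 μM) at 1.0 μM ATP in HEPES with Mg2+/Mn2+, 2 h at room temperature, compounds from 25 μM in 3-fold steps. AlphaScreen anti-phosphotyrosine PT66 detection; IC50 by non-linear regression.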

T1 sequence (P09619 600-962 limits assumed): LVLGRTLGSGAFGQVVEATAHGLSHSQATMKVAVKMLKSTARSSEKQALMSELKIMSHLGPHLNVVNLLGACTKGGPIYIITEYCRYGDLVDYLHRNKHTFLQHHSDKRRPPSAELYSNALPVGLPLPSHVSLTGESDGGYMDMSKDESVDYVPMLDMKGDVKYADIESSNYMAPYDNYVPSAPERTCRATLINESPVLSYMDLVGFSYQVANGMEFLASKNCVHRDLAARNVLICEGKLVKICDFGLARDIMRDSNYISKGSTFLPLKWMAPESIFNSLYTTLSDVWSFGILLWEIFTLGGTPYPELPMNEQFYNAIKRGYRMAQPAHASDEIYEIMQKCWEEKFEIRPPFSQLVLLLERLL
T2 sequence (P10721 589-937 limits assumed): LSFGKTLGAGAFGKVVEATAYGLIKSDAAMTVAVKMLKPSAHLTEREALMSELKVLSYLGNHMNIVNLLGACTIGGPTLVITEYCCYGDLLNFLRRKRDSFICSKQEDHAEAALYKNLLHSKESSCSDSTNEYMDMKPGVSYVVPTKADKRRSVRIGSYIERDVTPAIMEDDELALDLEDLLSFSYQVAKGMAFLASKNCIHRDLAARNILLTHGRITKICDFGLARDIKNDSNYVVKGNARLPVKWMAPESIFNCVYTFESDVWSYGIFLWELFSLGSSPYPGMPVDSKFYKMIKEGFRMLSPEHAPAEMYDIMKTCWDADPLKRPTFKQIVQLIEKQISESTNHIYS

As for `Nc1cc(Oc2ccc3nc(N[C@@H]4CCCC[C@H]4O)sc3c2)ncn1` [Compound 9, (1R,2R)-2-(6-(6-aminopyrimidin-4-yloxy)benzo[d]thiazol-2-ylamino) cyclohexanol], the inhibition at 1 µM in test [1] is 2%; in test [2], 15%; in test [3], 13%; in test [4], 97%.
The matching figures for `CNC(=O)c1cc(Oc2ccc3nc(NCC4CCCCC4)sc3c2)nc(OC)n1` [Compound 10, 6-(2-(Cyclohexylmethylamino)benzo[d]thiazol-6-yloxy)-2-methoxy-n-methylpyrimidine-4-carboxamide]: 5%, 27%, 16% and 96%.
Turning to `CNc1cc(Oc2ccc3nc(NCC4CCCCC4)sc3c2)ncn1` [Compound 13, N-(cyclohexylmethyl)-6-(6-(methylamino)pyrimidin-4-yloxy)benzo[d]thiazol-2-amine], the inhibition at 1 µM in test [1] turned out to be 30%; in test [2], 18%; in test [3], 42%; in test [4], 98%.
In the case of `COc1cc2ncnc(Oc3ccc4nc(NCC5CCCCC5)sc4c3)c2cc1OC` [Compound 17, N-(cyclohexylmethyl)-6-(6,7-dimethoxyquinazolin-4-yloxy)benzo[d] thiazol-2-amine], the inhibition at 1 µM in test [1] came to 98%; in test [2] it was 100%; in test [3], 99%; in test [4], 100%.
Take `O[C@@H]1CCCC[C@H]1Nc1nc2ccc(Oc3ncnc4ccccc34)cc2s1` [Compound 18, (1R,2R)-2-(6-(quinazolin-4-yloxy)benzo[d]thiazol-2-ylamino)cyclohexanol]: the inhibition at 1 µM worked out at 11% in test [1], 38% in test [2], 22% in test [3] and 100% in test [4].
For the molecule `COc1cc2ncnc(Oc3ccc4nc(N[C@@H]5CCCC[C@H]5O)sc4c3)c2cc1OC` [Compound 19, (1R,2R)-2-(6-(6,7-dimethoxyquinazolin-4-yloxy)benzo [d]thiazol-2-ylamino) cyclohexanol], the inhibition at 1 µM in test [1] was 30%; in test [2], 100%; in test [3], 34%; in test [4], 100%.
Turning to `Cn1cc(-c2cc(Oc3ccc4nc(NCC5CCCCC5)sc4c3)ncn2)cn1` [Compound 20, N-(cyclohexylmethyl)-6-(6-(1-methyl-1H-pyrazol-4-yl)pyrimidin-4-yloxy)benzo[d]thiazol-2-amine], the inhibition at 1 µM in test [1] was determined as 82%; in test [2], 96%; in test [3], 99%; in test [4], 100%.
The matching figures for `Cn1cc(-c2nccc(Oc3ccc4nc(NCC5CCCCC5)sc4c3)n2)cn1` [Compound 21, N-(cyclohexylmethyl)-6-(2-(1-methyl-1H-pyrazol-4-yl)pyrimidin-4-yloxy) benzo[d]thiazol-2-amine]: 92%, 100%, 100% and 100%.
The matching figures for `Cn1cc(-c2cc(Oc3ccc4nc(N[C@@H]5CCCC[C@H]5O)sc4c3)ncn2)cn1` [Compound 22, (1R,2R)-2-(6-(6-(1-methyl-1H-pyrazol-4-yl)pyrimidin-4-yloxy)benzo[d]thiazol-2-ylamino) cyclohexanol]: 11%, 100%, 29% and 100%.
For `Cn1cc(-c2nccc(Oc3ccc4nc(N[C@@H]5CCCC[C@H]5O)sc4c3)n2)cn1` [Compound 23, (1R,2R)-2-(6-(2-(1-methyl-1H-pyrazol-4-yl)pyrimidin-4-yloxy)benzo[d]thiazol-2-ylamino) cyclohexanol] the same measures were 7%, 100%, 19% and 100%.
As for `c1cc(-n2cncn2)cc(Oc2ccc3nc(NCC4CCCCC4)sc3c2)n1` [Compound 24, 6-(4-(1H-1,2,4-triazol-1-yl)pyridin-2-yloxy)-N-(cyclohexylmethyl)benzo[d]thiazol-2-amine], the inhibition at 1 µM turned out to be 9% in test [1], 0% in test [2], 7% in test [3] and 44% in test [4].
The matching figures for `Cn1nccc1-c1cc(Oc2ccc3nc(N[C@@H]4CCCC[C@H]4O)sc3c2)ncn1` [Compound 25, (1R,2R)-2-(6-(6-(1-methyl-1H-pyrazol-5-yl)pyrimidin-4-yloxy)benzo[d]thiazol-2-ylamino) cyclohexanol]: 0%, 14%, 22% and 69%.
On to `Cn1nccc1-c1nccc(Oc2ccc3nc(N[C@@H]4CCCC[C@H]4O)sc3c2)n1` [Compound 26, (1R,2R)-2-(6-(2-(1-methyl-1H-pyrazol-5-yl)pyrimidin-4-yloxy)benzo[d]thiazol-2-ylamino) cyclohexanol], for which the inhibition at 1 µM in test [1] was found to be 20%; in test [2] it was 19%; in test [3] it was 24%; in test [4] it was 100%.
As for `Nc1ccc(-c2nccc(Oc3ccc4nc(N[C@@H]5CCCC[C@H]5O)sc4c3)n2)cn1` [Compound 29, (1R,2R)-2-(6-(2-(6-aminopyridin-3-yl)pyrimidin-4-yloxy)benzo[d]thiazol-2-ylamino)cyclohexanol], the inhibition at 1 µM in test [1] worked out at 11%; in test [2], 76%; in test [3], 13%; in test [4], 100%.
For `C[C@H](Nc1nc2ccc(Oc3ccnc(-c4cnn(C)c4)n3)cc2s1)C1CCCCC1` [Compound 30, (S)-N-(1-cyclohexylethyl)-6-(2-(1-methyl-1H-pyrazol-4-yl)pyrimidin-4-yloxy)benzo[d] thiazol-2-amine] the same measures were 21%, 100%, 24% and 100%.
Take `C[C@H](Nc1nc2ccc(Oc3ccnc(-c4ccc(N)nc4)n3)cc2s1)C1CCCCC1` [Compound 33, (S)-6-(2-(6-aminopyridin-3-yl)pyrimidin-4-yloxy)-N-(1-cyclohexylethyl) benzo[d]thiazol-2-amine]: the inhibition at 1 µM stood at 22% in test [1], 78% in test [2], 32% in test [3] and 100% in test [4].
For `C[C@H](Nc1nc2ccc(Oc3ccnc(-c4ccnn4C)n3)cc2s1)C1CCCCC1` [Compound 34, (S)-N-(1-cyclohexylethyl)-6-(2-(1-methyl-1H-pyrazol-5-yl)pyrimidin-4-yloxy)benzo[d]thiazol-2-amine] the same measures were 6%, 19%, 21% and 100%.
For `c1nc(Oc2ccc3nc(NCC4CCCCC4)sc3c2)c2ccsc2n1` [Compound 37, N-(cyclohexylmethyl)-6-(thieno[2,3-d]pyrimidin-4-yloxy) benzo[d]thiazol-2-amine] the same measures were 39%, 0%, 75% and 100%.
On to `C[C@H](Nc1nc2ccc(Oc3cc(-n4cncn4)ncn3)cc2s1)C1CCCCC1` [Compound 41, (S)-6-(6-(1H-1,2,4-triazol-1-yl)pyrimidin-4-yloxy)-N-(1-cyclohexylethyl) benzo[d]thiazol-2-amine], for which the inhibition at 1 µM in test [1] amounted to 0%; in test [2], 0%; in test [3], 28%; in test [4] it was 99%.
